In patent US20030130200A1, “Small peptides and methods for treatment of asthma and inflammation” (Hisatek, LLC, priority 1997, published 2003):
Entries after “also recorded” stand apart in the source; their conditions may differ. Where no end group is shown, it is not given here. The star is where a group is joined. For = O=C*

Test system: OVA-sensitized/challenged mice
Assay: OVA allergen-induced airway inflammation mouse model, 28-day protocol, HK-X i.n. before challenges on days 25, 26, 27
Type: in vivo, mouse (BALB/c)
Excerpt: The above-described murine model reproduces key features of human asthma. Late-phase allergen-specific pulmonary disease was induced in normal BALB/c mice using ovalbumin (OVA) as allergen. One protocol includes immunization of mice with i.p. OVA on days 1 and 14, and intranasal (i.n.) administration of OVA on days 14, 25, 26. and 27.
In a mouse model of allergen-induced airway inflammation, the role of mast cell in airway eosinophil infiltration, mucus release, and hyper-responsiveness to methacholine was examined.
Materials were used as described above. Mice received an i.p. injection of 0.2 ml (100 ug) of OVA complexed with aluminum potassium sulfate (alum) on day 0 and 14. On days 14, 25, 26, and 27, mice were anesthetized with 0.2 ml i.p. of ketamine (0.44 mg/ml)/xylazine (6.3 mg/ml) in normal saline before receiving an intranasal (i.n.) dose of 100 ug OVA in 0.05 ml normal saline on days 25, 26, and 27. Lung tissue was obtained 24 hours after the last i.n. challenge on day 28. The control group received normal saline with alum i.p. on days 0 and 14 and normal saline without alum i.n. on days 14, 25, 26, and 27. To assess the effect of HK-X inhibition on OVA induced asthma, HK-X (10 ug/ml) was given i.n. 30 minutes before each i.n. challenge on days 25, 26, and 27.
After tying off the left lung at the mainstem bronchus, the right lung was […] three times with 0.4 ml of normal saline. Bronchoalveolar lavage (BAL) fluid cells from a 0.05 ml aliquot of the pooled sample wee counted using a hemocytometer and the remaining fluid centrifuged at 4° C. for 10 minutes at 200 g. After resuspension of the cell pellet in normal saline containing 10% BSA, BAL cell smears were made on glass slides. To stain eosinophils, dried slides were stained with Discombe's diluting fluid (0.05% aqueous eosin and 5% (v/v) acetone in distilled water) for 5-8 minutes, rinsed with water for 0.5 minutes and counterstained with […] for 2 minutes
Following BAL, the trachea and left lung (upper and lower lobes) were obtained and fixed in 10% buffered formalin solution at 20° C. forlS hours. After the tissues were processed and embeded in paraffin, the tissues were cut into 5 μm sections and stained with Discombe's solution and counterstained with methylene blue as described above or stained with Hematoxylin and eosin. The eosinophil number per unit airway area (2200 μm^2) was determined by morphometry as previously described. Airway mucus was identified by a variety of staining methods, i.e., methylene blue, Hematoxylin and eosin, mucicarmine, toluidine blue, alcian blue, and alcian blue/periodic acid Schiff (PAS) reaction. […] The degree of mucus plugging of the airways (0.5-0.8 mm in diameter) also was assessed by morphometry. […]

Substance: f-Met-Leu-Phe-Phe (For-MLFF) [Example 9]
- Cellular infiltration during asthmatic attack (histopathology) (10 μg HK-X intranasally 30 minutes prior to challenge, FIG. 9): reduces the cellular infiltration
- Eosinophil influx into the lung tissue and BAL fluid (OVA sensitized/challenged mice, FIGS. 8A, 9A, 10A): markedly reduced
- Airway mucus release / secretion (OVA sensitized/challenged mice, histopathology FIGS. 8A, 9A, 10A, listed as HK-X): prevented airway mucus release; also recorded: blocked the airway mucus release; also recorded: prevents the airway mucus secretion; also recorded: reduces the mucus secretion in airways
- Reduction of eosinophil influx into the lung interstitium (morphometric analysis) (p<0.006 compared to OVA without HK-X, FIG. 11): 90%
